Source: patent US20090012152A1, “Use of Tetramic Acid Derivatives for Controlling Insects from the Genus of the Plane Lice (Sternorrhyncha)” (Bayer CropScience Aktiengesellschaft, priority 2005, published 2009)

Assays:
Format in all cases: in vivo
Aphis fabae = assay: Example 51: broad beans treated against Aphis fabae; conditions: nymphs on leaves, g a.i./ha: Pirimor 250, I-9 36, I-2 36, I-4 42; for Kill (%) 7 d: 7 d after treatment; for Kill (%) 15 d: 15 d after treatment
Experimental: In three replications, plots of a size of 10 m^2 with broad beans of the cultivar “Fruhe Weisskeimige” are treated against Aphis fabae. The application is carried out using a knapsack sprayer operated with pressurized air. Here, the active compounds Example (I-9) (240 SC), Example (I-2) (240 SC) and Example (I-4) (240 SC), in a tank mix with 0.2% of rapeseed oil methyl ester (500 EW), and the commercial standard Pirimor (50 WG) are tested at the stated application rates. Application is carried out once. The application rate is 500 l of water/ha.
Evaluation is carried out 7 and 15 days after the treatment by rating the kill of the nymphs on the leaves.

Bemisia tabaci = assay: Example 32: bell peppers treated against Bemisia tabaci; conditions: larvae on leaves, % a.i.: imidacloprid 0.02, I-9, I-2, I-11 0.0144; for Kill (%) 7 d: 7 d after second treatment; for Kill (%) 14 d: 14 d after second treatment; for Kill (%) 22 d: 22 d after second treatment
Experimental: In three replications, plots of a size of 10 m^2 with bell peppers of the cultivar “Italiano” are treated against Bemisia tabaci. The application is carried out using a motor-operated knapsack sprayer. Here, the active compounds Example (I-9) (240 SC), Example (I-2) (60 SC) and Example (I-11) (60 SC) and the commercial standard imidacloprid (200 SL) are applied at the stated application rates. Three applications at an interval of 14 or 15 days are carried out, at an application rate of 1000 or 1100 l of water/ha.
Evaluation is carried out 7, 14 and 22 days after the second treatment by rating the kill of the animals (larvae) on the leaves.

Aphis gossypii = assay: Example 52: melons treated against Aphis gossypii; conditions: on shoots, g a.i./ha: imidacloprid 100, I-4 48; for Kill (%) 3 d: 3 d after treatment; for Kill (%) 7 d: 7 d after treatment
Experimental: In three replications, plots of a size of 15 m^2 with melons are treated against Aphis gossypii. The application is carried out using a knapsack sprayer operated with pressurized air. Here, the active compound Example (I-4) (240 SC), in a tank mix with 0.1% a.i. of rapeseed oil methyl ester (500 EW), and the standard imidacloprid (200 SL) are applied at the stated application rates. The application rate is 500 l of water/ha.
Evaluation is carried out 3 days and 7 days after the treatment by rating the kill of the animals on the shoots.

Aphis pomi = assay: Example 40: apple trees treated against Aphis pomi; conditions: population on shoots, % a.i.: imidacloprid 0.007, I-9 0.0144, I-4 0.0144; for Kill (%) 14 d: 14 d after treatment; for Kill (%) 21 d: 21 d after treatment
Experimental: (§1) In three replications, three about 22-year-old apple trees of the cultivar “Golden Delicious” are treated eradicatively against Dysaphis plantaginea and Aphis pomi. The application is carried out using a motor-operated barrow-mounted sprayer. Here, the active compounds Example (I-9) (240 SC) and Example (I-4) (240 SC) in the stated amount are tested against the commercial standard imidacloprid (200 SL), at the stated application rate. The application rate is 1200 l of water/ha.
(§2) Evaluation is carried out 14 d and 21 d after the treatment by rating the kill of the population on the shoots.

Dysaphis plantaginea = assay: Example 40: apple trees treated against Dysaphis plantaginea; conditions: population on shoots, % a.i.: imidacloprid 0.007, I-9 0.0144, I-4 0.0144; for Kill (%) 14 d: 14 d after treatment; for Kill (%) 21 d: 21 d after treatment
Experimental: as §1, §2

Paratrioza cockerelli = assay: Example 7: bell peppers treated against Paratrioza cockerelli; conditions: nymphs on leaves, g a.i./ha: imidacloprid 52.6, I-4 72, dimethoate 561; for Kill (%) 7 d: 7 d after treatment; for Kill (%) 15 d: 15 d after treatment
Experimental: In four replications, plots of a size of about 7 m^2 with bell peppers of the cultivar “Jupiter” are treated against Paratrioza cockerelli. The application is carried out with a knapsack sprayer operated with pressurized air. Here, the active compound Example (I-4) (240 SC) is applied in a tank mix with 0.2% a.i. of rapeseed oil methyl ester (500 EW) and the commercial standards imidacloprid 192 SC and dimethoate (480 EC) are applied in a tank mix with 0.125% Induce at the stated application rates. The application is carried out with an application rate of 467 l of water/ha.
Evaluation is carried out 7 and 15 days after the treatment by rating the kill of the animals (nymphs) on the leaves.

Aleurodes citri = assay: Example 31: orange tree treated against Aleurodes citri; conditions: on leaves, g a.i./ha/m crown height: imidacloprid 75, I-4 72; for Kill (%) 7 d: 7 d after treatment; for Kill (%) 14 d: 14 d after treatment; for Kill (%) 21 d: 21 d after treatment
Experimental: In four replications, in each case one orange tree of the cultivar “Newhall” is treated against Aleurodes citri. Here, the active compound Example (I-4) (240 SC) is, at the stated application rate, tested against the commercial standard imidacloprid. The active compounds are applied in a tank mix with 0.5% a.i. of Oliocin (700 EW), at an application rate of 1500 l of water/ha. The application is carried out using a motor-operated knapsack sprayer.
Evaluation is carried out 7, 14 and 21 days after the treatment by rating the kill of the animals on the leaves.

Trioza erythreae = assay: Example 8: orange trees treated against Trioza erythreae; conditions: nymphs on branches, rate %: imidacloprid 0.004, I-4 0.0144; for Kill (%) 7 d: 7 d after first of two treatments; for Kill (%) 14 d: 14 d after first of two treatments; for Kill (%) 20 d: 20 d after first of two treatments
Experimental: In three replications, about 2-year-old orange trees are treated against Trioza erythreae. The application is carried out using a knapsack sprayer operated with pressurized air. Here, the active compound Example (I-4) (240 SC) is tested in a tank mix with 0.2% a.i. of rapeseed oil methyl ester (500 EW) against the commercial standard imidacloprid (100 SL) at the stated application rates. The application rate is 540 l of water/ha. Two treatments are carried out, at an interval of 7 days.
Evaluation is carried out 7, 14 and 20 days after the first treatment by rating the kill of the nymphs on the branches.

[1] = test system: Trialeurodes vaporariorum; assay: Example 34: tomatoes treated against Trialeurodes vaporariorum; conditions: larvae on leaves, % a.i.: imidacloprid 0.015, I-9 0.0144, I-4 0.0144
Experimental: In three replications, plots of a size of 5 m^2 with tomatoes of the cultivar “Rio Grande” are treated against Trialeurodes vaporariorum. The application is carried out using a motor-operated knapsack apparatus. Here, the active compounds Example (I-9) (240 SC) and Example (I-4) (240 SC) and the commercial standard imidacloprid (200 SL) are tested at the stated application rates. The application rate is 1000 l of water/ha. Three applications are carried out, at an interval of 11 or 10 days.
Evaluation is in each case carried out 7 or 10 days after each treatment, by rating the kill of the larvae on the leaves.

| SMILES | Kill (%) 7 d (Aphis fabae) | Kill (%) 15 d (Aphis fabae) | Kill (%) 7 d (Bemisia tabaci) | Kill (%) 14 d (Bemisia tabaci) | Kill (%) 22 d (Bemisia tabaci) | Kill (%) 3 d (Aphis gossypii) | Kill (%) 7 d (Aphis gossypii) | Kill (%) 14 d (Aphis pomi) | Kill (%) 21 d (Aphis pomi) | Kill (%) 14 d (Dysaphis plantaginea) | Kill (%) 21 d (Dysaphis plantaginea) | Kill (%) 7 d (Paratrioza cockerelli) | Kill (%) 15 d (Paratrioza cockerelli) | Kill (%) 7 d (Aleurodes citri) | Kill (%) 14 d (Aleurodes citri) | Kill (%) 21 d (Aleurodes citri) | Kill (%) 7 d (Trioza erythreae) | Kill (%) 14 d (Trioza erythreae) | Kill (%) 20 d (Trioza erythreae) | Kill (%) 7 d after the 2nd treatment [1] | further results |
| --- | --- | --- | --- | --- | --- | --- | --- | --- | --- | --- | --- | --- | --- | --- | --- | --- | --- | --- | --- | --- | --- |
| CCOC(=O)OC1=C(c2cc(C)ccc2Br)C(=O)NC12CCC(OC)CC2 (centres unmarked) [Example (I-2)] | 98.6% | 100% | 84.7% | 92.6% | 85.6% | – | – | – | – | – | – | – | – | – | – | – | – | – | – | – | – |
| CCOC(=O)OC1=C(c2cc(C)ccc2C)C(=O)NC12CCC(OC)CC2 (centres unmarked) [Example (I-4)] | 100% | 100% | – | – | – | 94.7% | 100% | 96.9% | 98.8% | 99.3% | 100% | 90% | 100% | 90.9% | 99.5% | 99.9% | 97.9% | 98.9% | 98.3% | 100% | Kill (%) 10 d after the 1st treatment [1]: 81.9%; Kill (%) 10 d after the 3rd treatment [1]: 94.3% |
| O=[N+]([O-])NC1=NCCN1Cc1ccc(Cl)nc1 [imidacloprid, reference compound] | – | – | 75.8% | 67.2% | 69.4% | 98.2% | 100% | 93.6% | 92.5% | 97.6% | 99.8% | 90% | 0% | 98.4% | 99.6% | 99.4% | 98.4% | 99.2% | 98.6% | 88.4% | Kill (%) 10 d after the 1st treatment [1]: 53.5%; Kill (%) 10 d after the 3rd treatment [1]: 67.5% |
